The values that follow come from ChEMBL document CHEMBL5465560, “Selectivity Literature for EUbOPEN Chemogenomic Library” (2024).

The target in experiment [1] is Atypical kinase COQ8A, mitochondrial (Homo sapiens, UniProt Q8NI60). The experiment can be described thus: Selectivity interaction (Ambit KINOMEscan and KiNATiv profiling in Jurkat cells) EUB0000090b ADCK3. Format: cell-based. The conditions noted are these: at 1 µM.
For experiment [2], the target named is T1, Alpha-2A adrenergic receptor (Homo sapiens) (UniProt P08913).
T1 sequence (whole entry): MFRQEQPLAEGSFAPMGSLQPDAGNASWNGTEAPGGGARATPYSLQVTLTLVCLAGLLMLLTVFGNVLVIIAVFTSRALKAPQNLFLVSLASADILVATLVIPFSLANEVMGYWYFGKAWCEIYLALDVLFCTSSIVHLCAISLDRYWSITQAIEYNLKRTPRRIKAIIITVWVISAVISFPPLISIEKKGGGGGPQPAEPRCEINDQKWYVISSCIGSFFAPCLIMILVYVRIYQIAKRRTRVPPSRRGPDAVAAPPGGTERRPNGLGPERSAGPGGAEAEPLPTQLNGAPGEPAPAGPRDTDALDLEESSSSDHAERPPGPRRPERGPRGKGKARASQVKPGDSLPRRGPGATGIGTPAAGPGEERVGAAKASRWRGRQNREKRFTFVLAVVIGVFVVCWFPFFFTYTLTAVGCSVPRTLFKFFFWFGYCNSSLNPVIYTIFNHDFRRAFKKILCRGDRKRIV
Description: Selectivity interaction (Panel of non-epigenetic targets (kinases, GPCRs, ion channels, and transporters, Eurofins) ) EUB0000271b ADRA2A. The conditions noted are these: at 1 µM.

The target of experiment [3] is Ribosomal protein S6 kinase alpha-5 (Homo sapiens) (UniProt O75582). Description: Selectivity interaction (SelectScreen profiling (Invitrogen)) EUB0000607a RPS6KA5. To be noted: at 2 µM.
Sequence of Ribosomal protein S6 kinase alpha-5 (Homo sapiens) (O75582 whole entry, looked up): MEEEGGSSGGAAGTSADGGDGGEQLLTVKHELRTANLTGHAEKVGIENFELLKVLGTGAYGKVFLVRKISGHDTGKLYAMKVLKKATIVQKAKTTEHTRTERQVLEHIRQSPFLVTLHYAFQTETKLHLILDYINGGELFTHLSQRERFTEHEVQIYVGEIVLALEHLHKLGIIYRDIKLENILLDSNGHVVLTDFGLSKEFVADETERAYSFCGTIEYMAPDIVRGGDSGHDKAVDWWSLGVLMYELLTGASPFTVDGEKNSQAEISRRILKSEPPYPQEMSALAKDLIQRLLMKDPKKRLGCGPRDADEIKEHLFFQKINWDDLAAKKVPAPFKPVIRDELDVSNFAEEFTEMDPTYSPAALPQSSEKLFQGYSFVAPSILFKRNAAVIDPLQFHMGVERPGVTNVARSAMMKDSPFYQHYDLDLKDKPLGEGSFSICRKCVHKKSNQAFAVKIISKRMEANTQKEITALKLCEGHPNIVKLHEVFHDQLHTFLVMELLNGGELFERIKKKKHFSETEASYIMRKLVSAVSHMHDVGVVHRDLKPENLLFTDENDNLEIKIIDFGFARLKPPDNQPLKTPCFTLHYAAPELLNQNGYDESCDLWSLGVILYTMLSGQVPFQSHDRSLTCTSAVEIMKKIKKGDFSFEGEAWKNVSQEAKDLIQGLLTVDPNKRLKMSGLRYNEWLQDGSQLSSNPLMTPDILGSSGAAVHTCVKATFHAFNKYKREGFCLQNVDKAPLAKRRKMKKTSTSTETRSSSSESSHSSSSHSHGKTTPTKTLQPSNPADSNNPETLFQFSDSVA
For experiment [4], the target named is T2, NUAK family SNF1-like kinase 1 (Homo sapiens) (UniProt O60285).
T2 sequence (whole entry): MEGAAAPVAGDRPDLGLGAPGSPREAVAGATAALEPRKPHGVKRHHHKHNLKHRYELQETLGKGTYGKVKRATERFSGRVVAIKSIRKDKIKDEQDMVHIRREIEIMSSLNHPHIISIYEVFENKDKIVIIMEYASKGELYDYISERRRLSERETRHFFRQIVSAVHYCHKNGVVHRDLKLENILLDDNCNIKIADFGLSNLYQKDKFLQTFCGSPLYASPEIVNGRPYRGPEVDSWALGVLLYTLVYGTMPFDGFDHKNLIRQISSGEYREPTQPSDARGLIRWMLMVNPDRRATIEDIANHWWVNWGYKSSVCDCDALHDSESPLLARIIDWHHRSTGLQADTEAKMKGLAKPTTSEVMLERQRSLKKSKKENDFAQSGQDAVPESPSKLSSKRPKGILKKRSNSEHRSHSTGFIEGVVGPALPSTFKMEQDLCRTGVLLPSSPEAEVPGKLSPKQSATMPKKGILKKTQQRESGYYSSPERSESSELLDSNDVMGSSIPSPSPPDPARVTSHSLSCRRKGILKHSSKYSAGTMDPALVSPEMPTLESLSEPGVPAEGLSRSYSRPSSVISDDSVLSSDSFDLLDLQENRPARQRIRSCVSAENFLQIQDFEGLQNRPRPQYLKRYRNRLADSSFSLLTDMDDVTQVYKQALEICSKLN
Description: Selectivity interaction (KinomeScan (DiscoverX)) EUB0000666a NUAK1. The conditions noted are these: at 10 µM.

For experiment [5], the target named is Vascular endothelial growth factor receptor 1 (Homo sapiens) (UniProt P17948). The experiment can be described thus: Selectivity interaction (Kinase panel (DSF assay)) EUB0001558a FLT1. (In DSF a fluorescence change marks the thermal transition of the protein.)
Sequence of Vascular endothelial growth factor receptor 1 (Homo sapiens) (P17948 whole entry, the tested form may be a part): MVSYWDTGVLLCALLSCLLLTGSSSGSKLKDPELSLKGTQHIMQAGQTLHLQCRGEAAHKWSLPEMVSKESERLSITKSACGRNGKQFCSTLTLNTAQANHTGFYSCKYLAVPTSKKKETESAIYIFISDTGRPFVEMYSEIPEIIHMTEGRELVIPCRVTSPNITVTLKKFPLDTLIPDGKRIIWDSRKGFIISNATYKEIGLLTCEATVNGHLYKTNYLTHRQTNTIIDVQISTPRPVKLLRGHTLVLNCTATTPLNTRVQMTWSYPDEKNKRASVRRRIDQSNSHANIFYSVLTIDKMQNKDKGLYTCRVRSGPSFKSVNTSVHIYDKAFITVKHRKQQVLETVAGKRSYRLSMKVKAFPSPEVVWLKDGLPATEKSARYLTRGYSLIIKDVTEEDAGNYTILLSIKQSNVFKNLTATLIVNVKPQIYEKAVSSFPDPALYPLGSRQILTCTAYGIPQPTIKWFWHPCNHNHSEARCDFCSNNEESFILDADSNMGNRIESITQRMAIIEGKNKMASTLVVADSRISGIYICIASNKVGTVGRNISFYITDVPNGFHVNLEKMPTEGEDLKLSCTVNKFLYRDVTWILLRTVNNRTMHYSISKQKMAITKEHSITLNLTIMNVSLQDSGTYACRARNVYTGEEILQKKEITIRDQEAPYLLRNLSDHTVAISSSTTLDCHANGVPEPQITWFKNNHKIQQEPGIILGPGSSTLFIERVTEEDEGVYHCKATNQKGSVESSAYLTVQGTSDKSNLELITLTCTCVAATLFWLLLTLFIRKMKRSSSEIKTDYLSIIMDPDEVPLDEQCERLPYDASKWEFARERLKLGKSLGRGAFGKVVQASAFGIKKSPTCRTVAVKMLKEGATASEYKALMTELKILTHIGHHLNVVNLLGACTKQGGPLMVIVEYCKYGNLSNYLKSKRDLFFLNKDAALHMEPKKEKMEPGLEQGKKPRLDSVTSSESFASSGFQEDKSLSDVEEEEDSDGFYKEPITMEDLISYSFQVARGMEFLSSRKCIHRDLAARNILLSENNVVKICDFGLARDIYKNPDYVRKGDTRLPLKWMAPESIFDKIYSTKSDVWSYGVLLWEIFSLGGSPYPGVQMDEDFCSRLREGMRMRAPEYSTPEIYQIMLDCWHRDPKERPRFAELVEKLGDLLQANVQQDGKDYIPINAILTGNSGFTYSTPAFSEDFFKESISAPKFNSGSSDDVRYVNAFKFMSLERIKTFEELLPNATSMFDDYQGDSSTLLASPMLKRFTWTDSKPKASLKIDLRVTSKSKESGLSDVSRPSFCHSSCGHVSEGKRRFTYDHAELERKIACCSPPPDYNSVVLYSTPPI
For experiment [6], the target named is LIM domain kinase 2 (Homo sapiens) (UniProt P53671). Description: Selectivity interaction (KinomeScan (DiscoverX)) EUB0000229b LIMK2. The conditions noted are these: at 10 µM.
Experiment [7] has as its target Protein arginine N-methyltransferase 8 (Homo sapiens, UniProt Q9NR22). The experiment can be described thus: Selectivity interaction (Methyltransferase screen (Scintillation proximity assays)) EUB0000255b PRMT8. Background: SPA uses beads or plates that emit light when radiolabelled molecules are held near them.
The target of experiment [8] is Activin receptor type-2A (Homo sapiens) (UniProt P27037). The experiment can be described thus: Selectivity interaction (KinomeScan (DiscoverX)) EUB0001079a ACVR2A. To be noted: at 1 µM.
Sequence of Activin receptor type-2A (Homo sapiens) (P27037 whole entry): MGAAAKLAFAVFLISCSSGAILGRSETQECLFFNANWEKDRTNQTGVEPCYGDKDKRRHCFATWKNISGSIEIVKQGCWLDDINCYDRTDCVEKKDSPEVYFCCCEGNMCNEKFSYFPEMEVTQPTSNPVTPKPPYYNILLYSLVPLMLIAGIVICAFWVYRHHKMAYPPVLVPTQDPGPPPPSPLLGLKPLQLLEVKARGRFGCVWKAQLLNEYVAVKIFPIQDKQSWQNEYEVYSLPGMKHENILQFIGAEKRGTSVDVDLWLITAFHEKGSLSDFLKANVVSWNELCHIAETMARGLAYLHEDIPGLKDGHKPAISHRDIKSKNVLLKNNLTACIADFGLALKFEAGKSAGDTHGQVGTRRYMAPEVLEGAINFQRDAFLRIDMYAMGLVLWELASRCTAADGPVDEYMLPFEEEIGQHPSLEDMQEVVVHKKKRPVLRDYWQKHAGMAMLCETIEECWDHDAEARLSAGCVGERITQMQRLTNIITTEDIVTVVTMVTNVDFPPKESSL
In experiment [9] the test system is Tyrosine-protein kinase ABL1 (Homo sapiens), P00519 [F317L]. Description: (§1) Selectivity interaction (KinomeScan (DiscoverX)) EUB0001079a ABL1. The conditions noted are these: at 1 µM.
Experiment [10] has as its system Tyrosine-protein kinase ABL1 (Homo sapiens), P00519 [M351T]. The description is as §1. To be noted: at 1 µM.
Experiment [11] deals with Tyrosine-protein kinase ABL1 (Homo sapiens), P00519 [F317I]. The description is as §1. The conditions noted are these: at 1 µM.
Experiment [12] deals with Tyrosine-protein kinase ABL1 (Homo sapiens), P00519 [T315I]. Described as §1. The conditions noted are these: at 1 µM.
Experiment [13] deals with Tyrosine-protein kinase ABL1 (Homo sapiens), P00519 [Q252H]. The description is as §1. To be noted: at 1 µM.
Experiment [14] has as its system Tyrosine-protein kinase ABL1 (Homo sapiens), P00519 [E255K]. Described as §1. To be noted: at 1 µM.
For experiment [15], the system named is Tyrosine-protein kinase ABL1 (Homo sapiens), P00519 [H396P]. The experiment is described as §1. To be noted: at 1 µM.
In experiment [16] the target is Tyrosine-protein kinase ABL1 (Homo sapiens, UniProt P00519). The description is as §1. To be noted: at 1 µM.
In experiment [17] the test system is Tyrosine-protein kinase ABL1 (Homo sapiens), P00519 [Y253F]. The experiment is described as §1. To be noted: at 1 µM.
The target of experiment [18] is DNA-dependent protein kinase catalytic subunit (Homo sapiens) (UniProt P78527). The experiment can be described thus: Selectivity interaction (ActivX KiNativ screen (ex vivo kinase selectivity in human PBMCs)) EUB0001619a PRKDC. Format: cell-based. To be noted: PBMC, at 1 µM.
In experiment [19] the target is Tyrosine-protein kinase Fes/Fps (Homo sapiens) (UniProt P07332). Description: Selectivity interaction (Kinase panel (Invitrogen)) EUB0000639a FES. To be noted: at 200 nM.
Sequence of Tyrosine-protein kinase Fes/Fps (Homo sapiens) (P07332 whole entry, canonical isoform): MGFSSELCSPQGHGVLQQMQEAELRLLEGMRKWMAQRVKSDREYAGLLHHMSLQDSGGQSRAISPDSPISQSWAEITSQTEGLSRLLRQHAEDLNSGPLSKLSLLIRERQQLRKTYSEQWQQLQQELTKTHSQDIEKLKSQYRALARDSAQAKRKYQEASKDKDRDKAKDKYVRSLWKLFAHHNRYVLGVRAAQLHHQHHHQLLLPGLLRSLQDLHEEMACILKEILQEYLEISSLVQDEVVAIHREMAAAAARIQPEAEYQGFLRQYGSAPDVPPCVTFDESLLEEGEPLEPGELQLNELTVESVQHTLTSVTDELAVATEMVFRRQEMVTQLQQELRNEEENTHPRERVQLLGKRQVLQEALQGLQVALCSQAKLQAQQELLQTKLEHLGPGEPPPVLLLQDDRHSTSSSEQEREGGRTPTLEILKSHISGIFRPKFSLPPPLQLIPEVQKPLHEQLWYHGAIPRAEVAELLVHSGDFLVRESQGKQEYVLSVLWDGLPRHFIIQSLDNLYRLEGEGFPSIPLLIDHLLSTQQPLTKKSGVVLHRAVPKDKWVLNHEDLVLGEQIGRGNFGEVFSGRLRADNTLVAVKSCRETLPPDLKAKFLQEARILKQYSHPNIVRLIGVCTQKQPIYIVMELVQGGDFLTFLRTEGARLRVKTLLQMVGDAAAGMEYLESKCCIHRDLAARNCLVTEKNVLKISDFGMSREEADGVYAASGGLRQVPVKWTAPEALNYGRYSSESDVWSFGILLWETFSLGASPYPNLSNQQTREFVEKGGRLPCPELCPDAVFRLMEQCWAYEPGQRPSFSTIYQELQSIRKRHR
The target in experiment [20] is Casein kinase I isoform gamma-3 (Homo sapiens) (UniProt Q9Y6M4). Description: Selectivity interaction (KinomeScan (DiscoverX)) EUB0000045b CSNK1G3.
Sequence of Casein kinase I isoform gamma-3 (Homo sapiens) (Q9Y6M4 whole entry, looked up, canonical isoform): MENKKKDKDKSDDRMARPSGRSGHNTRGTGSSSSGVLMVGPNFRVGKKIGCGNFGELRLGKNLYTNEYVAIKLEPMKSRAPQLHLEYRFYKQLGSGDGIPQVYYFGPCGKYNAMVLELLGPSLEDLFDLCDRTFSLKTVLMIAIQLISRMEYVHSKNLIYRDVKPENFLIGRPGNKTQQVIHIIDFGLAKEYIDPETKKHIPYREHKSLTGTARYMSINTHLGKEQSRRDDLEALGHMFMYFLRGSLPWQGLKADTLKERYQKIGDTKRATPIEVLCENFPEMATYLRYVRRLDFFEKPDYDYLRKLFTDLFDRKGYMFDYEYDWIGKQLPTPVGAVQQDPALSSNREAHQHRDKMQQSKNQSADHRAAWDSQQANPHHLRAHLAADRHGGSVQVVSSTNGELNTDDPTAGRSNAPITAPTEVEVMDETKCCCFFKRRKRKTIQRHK

Sequence of Protein arginine N-methyltransferase 8 (Q9NR22 2-394 limits assumed): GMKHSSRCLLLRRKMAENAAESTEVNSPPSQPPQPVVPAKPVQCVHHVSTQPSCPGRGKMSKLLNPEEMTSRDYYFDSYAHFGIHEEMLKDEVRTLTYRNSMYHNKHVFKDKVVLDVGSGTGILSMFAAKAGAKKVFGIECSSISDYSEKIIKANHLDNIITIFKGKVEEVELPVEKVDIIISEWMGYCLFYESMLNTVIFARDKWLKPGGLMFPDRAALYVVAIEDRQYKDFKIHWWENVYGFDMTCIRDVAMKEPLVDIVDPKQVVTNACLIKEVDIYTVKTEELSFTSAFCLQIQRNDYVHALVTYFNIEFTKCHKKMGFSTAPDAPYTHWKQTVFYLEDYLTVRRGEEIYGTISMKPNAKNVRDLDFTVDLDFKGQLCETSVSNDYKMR
Sequence of Atypical kinase COQ8A, mitochondrial (Q8NI60 163-647 limits assumed): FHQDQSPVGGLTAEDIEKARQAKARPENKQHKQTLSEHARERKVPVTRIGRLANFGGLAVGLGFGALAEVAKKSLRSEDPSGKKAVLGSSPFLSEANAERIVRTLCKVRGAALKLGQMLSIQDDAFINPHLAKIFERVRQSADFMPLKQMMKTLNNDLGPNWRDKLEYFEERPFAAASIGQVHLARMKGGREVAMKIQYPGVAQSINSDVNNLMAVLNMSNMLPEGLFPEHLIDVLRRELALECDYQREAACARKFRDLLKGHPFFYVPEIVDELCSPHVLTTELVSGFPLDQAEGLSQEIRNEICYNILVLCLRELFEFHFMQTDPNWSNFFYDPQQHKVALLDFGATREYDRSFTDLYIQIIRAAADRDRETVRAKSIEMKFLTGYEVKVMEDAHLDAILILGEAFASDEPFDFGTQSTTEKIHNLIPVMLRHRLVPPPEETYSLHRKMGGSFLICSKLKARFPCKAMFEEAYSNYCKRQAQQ

As to `CN(C)C/C=C/C(=O)Nc1ccc(C(=O)N2CCCC(Nc3ncc(Cl)c(-c4c[nH]c5ccccc45)n3)C2)cc1` (configuration not stated), the % of control in experiment [1] was 90%.

As to `Cc1cc(C)cc([C@@H]2c3cc(C)ccc3NC(=O)CN2C(=O)c2ccc(Br)s2)c1`, the % of inhibition in [2] was -8%.

As to `CNC(=O)Nc1ccc(-c2nc(N3CC4CCC(C3)O4)c3cnn(C4CCC5(CC4)OCCO5)c3n2)cc1`, in [3], the % of inhibition is 1%.

As to `O=C(NOC[C@H](O)CO)c1ccc(F)c(F)c1Nc1ccc(I)cc1F`, the % of control in experiment [4] was determined as 81%.

For `CC(C)(O)[C@H](F)CN1Cc2cc(NC(=O)c3cnn4cccnc34)c(N3CCOCC3)cc2C1=O`, the dTM in experiment [5] stood at 3.3 K.

Regarding `COc1cc(N(C)c2ccnc3ccc(C(F)(F)F)cc23)cc(OC)c1OC`, in experiment [6], the % binding was found to be 93%.

As to `COCCN1CCC(c2cc(CN(C)C(=O)c3cccc(Oc4ccccc4)c3)ccn2)CC1`, the % activity in experiment [7] (at 1 µM) was 50%; in experiment [7] (at 10 µM), greater than 90%.

For `Nc1cnc(N2CCc3cc(S(=O)(=O)Nc4c(F)cc(Cl)cc4F)cc(N4CCCC4=O)c32)nc1` [TP-020n], the % of control in experiment [8] came out at 67%; in [9], 99%; in experiment [10] it was 100%; in experiment [11], 100%; in [12], 100%; in [13], 100%. For the same compound, the % of control in experiment [14] came out at 85%; in experiment [15], 94%; in experiment [16] it was 100%; in experiment [17] it was 94%.

Regarding `N#Cc1cccc(-c2c[nH]c3ncnc(N4CCOCC4)c23)c1`, in experiment [18], the % of inhibition was -4%.

On to `CC[C@@H]1[C@H](F)C(=O)N[C@@H]1COc1nccc2cc(C(N)=O)c(OC)cc12` [ZIMLOVISERTIB], for which the % of inhibition in experiment [19] is 1.51%.

For `C=CC(=O)Nc1cc(-n2c(=O)ccc3cnc4ccc(-c5ccc(NS(C)(=O)=O)cc5)cc4c32)ccc1C`, the figures for the % of control in experiment [20] (at 1 µM) and in [20] (at 10 µM) were 100% and 84%, respectively.
